Reference: paper PMC11544713, “The Application of Untargeted Metabolomic Approaches for the Search of Common Bioavailable Metabolites in Human Plasma Samples from Lippia citriodora and Olea europaea Extracts” (Journal of Agricultural and Food Chemistry, 2024)
Where a name gives a salt, the structure may show the parent alone.

Assays:
[1] = Acute intervention: nutrikinetics of plasma metabolites after ingestion of L. citriodora extract (untargeted HPLC-ESI-QTOF-MS)
Description: (§1) A total of 25 healthy individuals participated, with an average age of 27 ± 9 years and a mean body mass index (BMI) of 23 ± 3 kg/m^2. None of the participants were taking any medications or nutritional supplements nor did they have any chronic diseases or gastrointestinal issues. The sample size was established based on findings from previous bioavailability research.[14] All participants provided informed consent before participating in the study.
(§2) The intervention study was carried out at Miguel Hernández University. Following an overnight fast, the volunteers were categorized into the subsequent groups: a subgroup to evaluate the LC leaf extract (n = 8), another for the OE leaf extract (n = 8), and the placebo subgroup (n = 9). This was a double-blind study, in which sample collection and treatment were carried out uniformly across all three subgroups.
(§3) Water was provided ad libitum. Prior to the ingestion of the capsule, a nurse inserted a cannula into the ulnar vein of each volunteer’s nondominant arm, and blood samples were drawn into EDTA-coated tubes at baseline (t = 0). Blood samples were then collected at 0.5, 1, 2, 4, 6, 8, and 10 h after the consumption of the 500 mg capsule. Plasma was separated through centrifugation (10 min at 3000 rpm and 4 °C) and stored at −80 °C until further analysis.
(§4) Plasma samples were initially treated using a mixture of methanol and ethanol (50:50; v:v) to remove proteins, following previously reported protocols.[19] During the sample treatment, pooled quality controls (pooled-QC) were prepared by combining equal aliquots from each sample. These QC samples were processed by using the same protocols as the experimental biological samples.
(§5) A reversed-phase analytical C18 column (Agilent Zorbax Eclipse Plus, 1.8 μm, 4.6 × 150 mm^2) with a protective cartridge with the same packing was used. MS data were acquired in negative ionization mode, operating in full scan across a mass-to-charge ratio (m/z) range of 50–1700. The analytical method used was adapted from that described by Villegas-Aguilar et al.[19]
(§6) Metabolite nutrikinetics were studied using PKSolver, an add-in program for pharmacokinetic data analysis in Microsoft Excel. The time to reach the maximum concentration (observed Tmax) was calculated for each significant metabolite. As an untargeted metabolomic approach was used to detect the circulating metabolites, these were not quantified. Therefore, the maximum concentration (Cmax) and area under the curve (AUC) parameters were calculated in a relative way by using the deconvoluted chromatographic areas. […] Statistical differences were determined by unpaired t tests. All p values less than 0.05 were considered statistically significant.

[2] = Acute intervention: nutrikinetics of plasma metabolites after ingestion of O. europaea extract (untargeted HPLC-ESI-QTOF-MS)
Description: as §1, §2, §3, §4, §5, §6

[3] = 0.5 h after L. citriodora extract
[4] = 1 h after L. citriodora extract
[5] = 2 h after L. citriodora extract
[6] = 4 h after L. citriodora extract
[7] = 6 h after L. citriodora extract
[8] = 8 h after L. citriodora extract
[9] = 10 h after L. citriodora extract
[10] = human plasma, 500 mg capsule of L. citriodora (LC) extract, oral, mean ± SD
[11] = 0.5 h after O. europaea extract
[12] = human plasma, 500 mg capsule of O. europaea (OE) extract, oral, mean ± SD

Row | Compound | AUC: area under the zero-moment curve ([1]; human, in vivo, po, 500 mg) | Cmax: relative maximum plasma level ([1]; human, in vivo, po, 500 mg) | mean chromatographic area in plasma, T0.5 ([1]; in vivo) | mean chromatographic area in plasma, T1 ([1]; in vivo) | mean chromatographic area in plasma, T2 ([1]; in vivo) | mean chromatographic area in plasma, T4 ([1]; in vivo) | mean chromatographic area in plasma, T6 ([1]; in vivo) | mean chromatographic area in plasma, T8 ([1]; in vivo) | mean chromatographic area in plasma, T10 ([1]; in vivo) | mean chromatographic area in plasma, T0.5 [1, 3] | mean chromatographic area in plasma, T1 [1, 4] | mean chromatographic area in plasma, T2 [1, 5] | mean chromatographic area in plasma, T4 [1, 6] | mean chromatographic area in plasma, T6 [1, 7] | mean chromatographic area in plasma, T8 [1, 8] | mean chromatographic area in plasma, T10 [1, 9] | AUC: area under the zero-moment curve [1, 10] | Cmax: relative maximum plasma level [1, 10] | observed Tmax: time required to reach Cmax [1, 10] [h] | mean chromatographic area in plasma, T0.5 [2, 11] | also measured
1 | homovanillic acid glucuronide | 1345 ± 1042 relative chromatographic area/h | 360 ± 219 relative chromatographic area | 0 | 0 | 0 | 114 | 232 | 219 | 214 | – | – | – | – | – | – | – | – | – | – | – | Cmax: relative maximum plasma level ([2]; human, in vivo, po, 500 mg): 199 ± 54 relative chromatographic area; mean chromatographic area in plasma, T0.5 ([2]; in vivo): 13; mean chromatographic area in plasma, T1 ([2]; in vivo): 94; mean chromatographic area in plasma, T2 ([2]; in vivo): 99; mean chromatographic area in plasma, T4 ([2]; in vivo): 182; mean chromatographic area in plasma, T6 ([2]; in vivo): 141; mean chromatographic area in plasma, T8 ([2]; in vivo): 80; mean chromatographic area in plasma, T10 ([2]; in vivo): 58
2 | COc1cc(CCO)ccc1OS(=O)(=O)O [homovanillyl alcohol sulfate] | – | – | – | – | – | – | – | – | – | 0 | 0 | 0 | 45 | 81 | 76 | 31 | 437 ± 278 relative chromatographic area/h | 156 ± 49 relative chromatographic area | 7 ± 2 | 0 | mean chromatographic area in plasma, T1 ([2]; 1 h after O. europaea extract): 94; mean chromatographic area in plasma, T2 ([2]; 2 h after O. europaea extract): 111; mean chromatographic area in plasma, T4 ([2]; 4 h after O. europaea extract): 61; mean chromatographic area in plasma, T6 ([2]; 6 h after O. europaea extract): 0; mean chromatographic area in plasma, T8 ([2]; 8 h after O. europaea extract): 0; mean chromatographic area in plasma, T10 ([2]; 10 h after O. europaea extract): 0; Cmax: relative maximum plasma level [2, 12]: 135 ± 32 relative chromatographic area; observed Tmax: time required to reach Cmax [2, 12]: 2.0 ± 0.9 h
3 | Cc1cccc(O)c1O [3-methylcatechol] | – | – | – | – | – | – | – | – | – | 0 | 0 | 0 | 86 | 91 | 76 | 58 | 565 ± 407 relative chromatographic area/h | 169 ± 59 relative chromatographic area | 8 ± 3 | 290 | mean chromatographic area in plasma, T1 ([2]; 1 h after O. europaea extract): 235; mean chromatographic area in plasma, T2 ([2]; 2 h after O. europaea extract): 50; mean chromatographic area in plasma, T4 ([2]; 4 h after O. europaea extract): 64; mean chromatographic area in plasma, T6 ([2]; 6 h after O. europaea extract): 16; mean chromatographic area in plasma, T8 ([2]; 8 h after O. europaea extract): 13; mean chromatographic area in plasma, T10 ([2]; 10 h after O. europaea extract): 0; Cmax: relative maximum plasma level [2, 12]: 307 ± 160 relative chromatographic area; observed Tmax: time required to reach Cmax [2, 12]: 0.6 ± 0.2 h
4 | COc1cc(C(=O)O)ccc1OS(=O)(=O)O [vanillic acid 4-O-sulfate isomer 1, vanillic acid 4-O-sulfate] | – | – | – | – | – | – | – | – | – | 0 | 0 | 97 | 395 | 548 | 588 | 365 | 3576 ± 3122 relative chromatographic area/h | 874 ± 644 relative chromatographic area | 8 ± 3 | 275 | mean chromatographic area in plasma, T1 ([2]; 1 h after O. europaea extract): 489; mean chromatographic area in plasma, T2 ([2]; 2 h after O. europaea extract): 354; mean chromatographic area in plasma, T4 ([2]; 4 h after O. europaea extract): 279; mean chromatographic area in plasma, T6 ([2]; 6 h after O. europaea extract): 216; mean chromatographic area in plasma, T8 ([2]; 8 h after O. europaea extract): 137; mean chromatographic area in plasma, T10 ([2]; 10 h after O. europaea extract): 60; Cmax: relative maximum plasma level [2, 12]: 489 ± 147 relative chromatographic area; observed Tmax: time required to reach Cmax [2, 12]: 1.0 ± 0.0 h
5 | hydroxytyrosol sulfate [hydroxytyrosol sulfate isomer 2] | – | – | – | – | – | – | – | – | – | 0 | 0 | 138 | 289 | 575 | 591 | 686 | 3802 ± 2564 relative chromatographic area/h | 902 ± 428 relative chromatographic area | 8 ± 2 | 336 | observed Tmax: time required to reach Cmax ([1]; human plasma, 500 mg capsule of L. citriodora (LC) extract, oral, mean ± SD, listed as hydroxytyrosol sulfate): 7 ± 2 h; mean chromatographic area in plasma, T1 ([2]; 1 h after O. europaea extract): 646; mean chromatographic area in plasma, T2 ([2]; 2 h after O. europaea extract): 605; mean chromatographic area in plasma, T4 ([2]; 4 h after O. europaea extract): 202; mean chromatographic area in plasma, T6 ([2]; 6 h after O. europaea extract): 235; mean chromatographic area in plasma, T8 ([2]; 8 h after O. europaea extract): 140; mean chromatographic area in plasma, T10 ([2]; 10 h after O. europaea extract): 202; Cmax: relative maximum plasma level [2, 12]: 836 ± 359 relative chromatographic area; observed Tmax: time required to reach Cmax [2, 12]: 3 ± 3 h; observed Tmax: time required to reach Cmax ([2]; human plasma, 500 mg capsule of O. europaea (OE) extract, oral, mean ± SD, listed as hydroxytyrosol sulfate): 1 h
6 | gardoside [gardoside isomer 2] | 2015 ± 547 relative chromatographic area/h | 508 ± 110 relative chromatographic area | 123 | 328 | 480 | 284 | 151 | 51 | 15 | – | – | – | – | – | – | – | – | – | – | – | observed Tmax: time required to reach Cmax ([1]; human, in vivo, po, 500 mg): 2.3 ± 0.7 h
7 | pteroside Z [pteroside Z isomer 2] | 310 ± 84 relative chromatographic area/h | 181 ± 58 relative chromatographic area | 28 | 152 | 97 | 18 | 0 | 0 | 0 | – | – | – | – | – | – | – | – | – | – | – | observed Tmax: time required to reach Cmax ([1]; human, in vivo, po, 500 mg): 2 ± 1 h
8 | O=C(O)CCCCCCCCC(=O)O [sebacic acid Isomer 2, sebacic acid] | – | – | 15 | 86 | 86 | 15 | – | – | – | – | – | – | – | – | – | – | – | – | – | – | –
9 | O=C(O)CCCCCCCCC(=O)O [sebacic acid isomer, sebacic acid] | 141 ± 86 relative chromatographic area/h | 119 ± 27 relative chromatographic area | 22 | 102 | 35 | 0 | 0 | 0 | 0 | – | – | – | – | – | – | – | – | – | – | – | observed Tmax: time required to reach Cmax ([1]; human, in vivo, po, 500 mg): 1.2 ± 0.4 h
10 | O=C(O)C=Cc1ccc(OS(=O)(=O)O)c(O)c1 (single isomer, unassigned; isomer 1) [caffeic acid 4-sulfate isomer 1, caffeic acid 4-sulfate] | 1157 ± 757 relative chromatographic area/h | 325 ± 147 relative chromatographic area | 21 | 89 | 280 | 177 | 86 | 67 | 0 | – | – | – | – | – | – | – | – | – | – | – | observed Tmax: time required to reach Cmax ([1]; human, in vivo, po, 500 mg): 3 ± 1 h
